We go through two compounds from patent publication US20240389591A1, “CRYSTALLINE FORMS OF METHYL 2-[2-[2-BROMO-4-FLUORO-5-[3-METHYL-2,6-DIOXO-4-(TRIFLUOROMETHYL)PYRIMIDIN-1-YL]PHENOXY]PHENOXY]-2-METHOXY-ACETATE” (BASF SE, priority 2021, published 2024).

One assay has as its system Erigeron canadensis. The assay can be described thus: Greenhouse herbicidal activity, post-emergence treatment. As to conditions: assessment 20 DAT, aqueous SC 8.33 w/v %, scale 0-100. The format is in vivo. The source says:
(§1) The culture containers used were plastic flowerpots containing loamy sand with approximately 3.0% of humus as the substrate. The seeds of the test plants were sown separately for each species.
(§2) For the post-emergence treatment, the test plants were first grown to a height of 3 to 15 cm, depending on the plant habit, and only then treated with the active ingredients which had been suspended or emulsified in water. For this purpose, the test plants were either sown directly and grown in the same containers, or they were first grown separately as seedlings and transplanted into the test containers a few days prior to treatment.
(§3) Depending on the species, the test plants were kept at 10-25° C. or 20-35° C., respectively. The test period extended over 2 to 4 weeks. During this time, the test plants were tended, and their response to the individual treatments was evaluated.
(§4) Evaluation was carried out using a scale from 0 to 100. 100 means no emergence of the test plants, or complete destruction of at least the aerial moieties, and 0 means no damage, or normal course of growth. A good herbicidal activity is given at values of at least 70 and a very good herbicidal activity is given at values of at least 85.
(§5) The abovementioned methods were used to compare, in a greenhouse test, form A according to the invention and, as comparison the compound of formula (I) in amorphous form, in each case formulated as aqueous suspension concentrate (SC; 8.33 w/v %).

In another assay the test system is Lolium multiflorum. Described as above. The format is in vivo. The following applies: assessment 20 DAT, aqueous SC 8.33 w/v %, scale 0-100.
Description: as §1, §2, §3, §4, §5

As to `COC(=O)C(OC)Oc1ccccc1Oc1cc(-n2c(=O)cc(C(F)(F)F)n(C)c2=O)c(F)cc1Br` (stereo not drawn) [Form A, methyl 2-[2-[2-bromo-4-fluoro-5-[3-methyl-2,6-dioxo-4-(trifluoromethyl)pyrimidin-1-yl]phenoxy]phenoxy]-2-methoxy-acetate], the “Damage [%]” value with Erigeron canadensis (2 g/ha a.i.) is listed as 60%; in the assay on Erigeron canadensis (4 g/ha a.i.), 100%; with Lolium multiflorum (2 g/ha a.i.), 50%; in the assay with Lolium multiflorum (4 g/ha a.i.), 70%; with Lolium multiflorum (8 g/ha a.i.), 90%; with Lolium multiflorum (16 g/ha a.i.), 90%.
Regarding `COC(=O)C(OC)Oc1ccccc1Oc1cc(-n2c(=O)cc(C(F)(F)F)n(C)c2=O)c(F)cc1Br` (stereo not drawn) [amorphous, methyl 2-[2-[2-bromo-4-fluoro-5-[3-methyl-2,6-dioxo-4-(trifluoromethyl)pyrimidin-1-yl]phenoxy]phenoxy]-2-methoxy-acetate], the “Damage [%]” value in the assay with Erigeron canadensis (2 g/ha a.i.) is given as 30%; in the assay with Erigeron canadensis (4 g/ha a.i.) it was 70%; with Lolium multiflorum (2 g/ha a.i.), 15%; in the assay on Lolium multiflorum (4 g/ha a.i.), 25%; in the assay on Lolium multiflorum (8 g/ha a.i.) it was 75%; in the assay on Lolium multiflorum (16 g/ha a.i.), 80%.
